{
  "source": "patent US8445469B2",
  "about": "“18-methyl-19-nor-17-pregn-4-ene-21,17-carbolactones, as well as pharmaceutical preparations that contain the latter” (Bayer Intellectual Property GmbH, priority 2004, dated 2013)",
  "test_system": "pregnancy maintenance (peripheral gestagenic activity)",
  "assay": "pregnancy maintenance test in ovariectomized rats",
  "assay_type": "in vivo, rat",
  "conditions": "ovariectomized pregnant rats, subcutaneous once daily with estrone 5 μg/kg/day, day 8 to day 15 or 21",
  "text": "Executing the Pregnancy Maintenance Test in Rats:\nIn pregnant rats, removal of the corpora lutea or castration induces abortion. By exogenous supplying of progestins (gestagens) in combination with a suitable dose of estrogens, pregnancy can be maintained. The pregnancy maintenance test in ovariectomized rats serves to determine peripheral gestagenic activity of a compound.\nRats are paired up during the proestrus overnight. Mating is monitored on the morning of the following day by vaginal smear inspection. The presence of sperm is considered in this case as day 1 of the beginning of pregnancy. On day 8 of pregnancy, the animals are ovariectomized under ether anesthesia. […]\nAt the end of the test (day 15 or day 21), the animals are sacrificed under CO2 atmosphere, and live fetuses (fetuses with beating hearts) and implantation sites (early resorptions and dead fetuses including autolysis and atrophic placentas) in both uterine horns are counted. […] In uteri without fetuses or implantation sites, the number of nidation sites is determined by staining with 10% ammonium sulfide solution. The pregnancy maintenance rate is calculated as the quotient of the number of living fetuses and the total number of nidation sites (both resorbed and dead fetuses as well as nidation sites). […]",
  "data": [
    {"smiles": "CCC12CCC3C4CCC(=O)C=C4C4CC4C3C1C1CC1C21CCC(=O)O1", "note": "(stereo not drawn) [compound 3a, 18-Methyl-6α,7α-15β,16β-dimethylene-3-oxo-19-nor-17-pregn-4-ene-21,17-carbolactone]", "values": [
      {"measurement": "pregnancy-maintaining dose (ED50)", "result": 120, "unit": "µg/kg/day"}
    ]}
  ]
}
